The record followed here is ChEMBL document CHEMBL1681673, “Anti-tumor pyrimidinylpiperazines bind to the prosurvival Bcl-2 protein family member Bcl-XL” (Bioorg Med Chem Lett, 2011).

Sequence of Bcl-2-like protein 1 (Q07817 whole entry): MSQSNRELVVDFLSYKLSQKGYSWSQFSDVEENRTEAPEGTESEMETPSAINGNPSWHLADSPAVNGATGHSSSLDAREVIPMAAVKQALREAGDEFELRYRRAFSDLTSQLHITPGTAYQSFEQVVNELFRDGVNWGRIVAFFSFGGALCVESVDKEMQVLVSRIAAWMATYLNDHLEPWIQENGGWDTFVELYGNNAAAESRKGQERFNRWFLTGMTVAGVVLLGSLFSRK

In one assay the test system is A549. Nature of the assay: Growth inhibition of human A549 cells after 24 hrs by SRB assay. In kind it is functional. Conditions: A549, 24 h. A general note: In SRB staining, fixed cells bind dye roughly in proportion to their protein.
In general, GI50 refers to the concentration at which growth is held to half of that of the control. In the case of `O=[N+]([O-])c1cccc(CN2CCN(c3ncc(Cc4ccccc4)cn3)CC2)c1`, it took 61.2 µM to inhibit growth by half (GI50).
For the molecule `Oc1cccc(CN2CCN(c3ncc(Cc4ccccc4)cn3)CC2)c1`, halving of growth (GI50) required 51.1 µM.
Molecule `CCc1cnc(N2CCN(Cc3cccc(N)c3)CC2)nc1` yielded a GI50 above 100 µM.
Turning to `CCc1cnc(N2CCN(Cc3cccc([N+](=O)[O-])c3)CC2)nc1`, the GI50 is 88 µM.
Same read-out and setting: the figure for `c1ccc(Cc2cnc(N3CCN(Cc4ccccc4)CC3)nc2)cc1` is 49.6 µM; for `Brc1ccccc1CN1CCN(c2ncc(Cc3ccccc3)cn2)CC1` it is 86.5 µM.
Same read-out and setting: the figure for `Fc1ccc(-c2cn[nH]c2)c(CN2CCN(c3ncc(Cc4ccccc4)cn3)CC2)c1` is 9.91 µM; for `Nc1ccc(Cl)c(CN2CCN(c3ncc(Cc4ccccc4)cn3)CC2)c1` it is 15.1 µM; for `Fc1ccc(Br)c(CN2CCN(c3ncc(Cc4ccccc4)cn3)CC2)c1` it is above 100 µM.
`CCc1cnc(N2CCN(Cc3ccccc3Br)CC2)nc1` gave a GI50 of 70.9 µM.
`CCc1cnc(N2CCN(Cc3cc(F)ccc3Br)CC2)nc1` came in with a GI50 above 100 µM.
`CCc1cnc(N2CCN(Cc3cc(F)ccc3-c3cn[nH]c3)CC2)nc1` yielded a GI50 of 49.2 µM.
Same read-out and setting: under `CCc1cnc(N2CCN(Cc3cc(N)ccc3Cl)CC2)nc1` stands 62.9 µM.
As for `Oc1ccc(Br)c(CN2CCN(c3ncc(Cc4ccccc4)cn3)CC2)c1`, it took 23.7 µM to inhibit growth by half (GI50).
The molecule `c1ccc(Cc2cnc(N3CCN(Cc4ccccc4-c4cn[nH]c4)CC3)nc2)cc1` came in with a GI50 of 8.43 µM.
The same measure, in the same setting: under `O=[N+]([O-])c1ccc(Cl)c(CN2CCN(c3ncc(Cc4ccccc4)cn3)CC2)c1` stands above 100 µM.
Still for that read-out and setting: the figure for `CCc1cnc(N2CCN(Cc3ccccc3-c3cn[nH]c3)CC2)nc1` is 51.4 µM.
Same read-out and setting: the figure for `CCc1cnc(N2CCN(Cc3ccccc3)CC2)nc1` is above 100 µM; for `CCc1cnc(N2CCN(Cc3cc([N+](=O)[O-])ccc3Cl)CC2)nc1` it is 67.2 µM; for `CCc1cnc(N2CCN(Cc3cccc(O)c3)CC2)nc1` it is above 100 µM.
`CCc1cnc(N2CCN(Cc3cc(O)ccc3Br)CC2)nc1`: the concentration for 50% growth inhibition (GI50) came out at 57.6 µM.
The molecule `Nc1cccc(CN2CCN(c3ncc(Cc4ccccc4)cn3)CC2)c1` displayed a GI50 of 75.4 µM.

A further assay addresses Bcl-2-like protein 1 (Homo sapiens, UniProt Q07817). Description: Binding affinity to Bcl-xL after 2 hrs by fluorescein-labeled Bak-BH3 peptide competition binding assay.
Settings: not given
A word on the Ki: it is a measure of affinity in units of concentration, obtained from inhibition or displacement. For the molecule `Oc1cccc(CN2CCN(c3ncc(Cc4ccccc4)cn3)CC2)c1`, the affinity corresponds to a Ki of 0.52 µM.
As for `Nc1ccc(Cl)c(CN2CCN(c3ncc(Cc4ccccc4)cn3)CC2)c1`, the affinity, expressed as Ki, was 0.17 µM.
Same read-out and setting: under `c1ccc(Cc2cnc(N3CCN(Cc4ccccc4-c4cn[nH]c4)CC3)nc2)cc1` stands 0.127 µM.
